From a melting point compilation (Tetko et al.; mined from patent text by program, amines drawn as free bases though some values may be those of a salt) come the findings set out here.

The melting point is the temperature of the solid-liquid transition.

A value given as a limit tells only on which side of the number the result lay.

On to `O=S(=O)(NCCCO)c1c(Cl)cc(Cl)cc1Cl`, for which the melting point lay within 104 to 106 °C. Turning to `CC(C)(C)c1cc(C=C2Sc3ccccc3N(CP(=O)(O)O)C2=O)cc(C(C)(C)C)c1O`, the melting point lay within 232 to 233 °C. With `O=C(O)Cc1ccc(-c2cn3ccsc3n2)cc1` the figure was 248 to 249 °C; with `O=C(Cc1ccccc1)N1CCC2(c3cccc(O)c3)CCCC2C1` (centres undefined), 135 to 137 °C; with `O=C1Nc2ccccc2C2(c3ccccc3)OCCN12` (centres undefined), 194 °C. `CSc1nn(C(C)(C)C)c(=O)c(Cl)c1C1CCC(C(C)(C)C)CC1` (centres undefined) had a melting point of 96 °C. Consider `COc1ccc(Cl)cc1C(=O)Nc1ccc(C(F)(F)F)cc1`, for which the melting point is 132 °C. Turning to `CC(C)S(=O)(=O)Oc1cn(C)c2cc(F)ccc2c1=O`, the melting point was in the range of 130 to 133 °C. For the compound `COc1ccc(C(=O)C2Cc3ccc(O)c(O)c3C2=O)cc1` (centres undefined), the melting point is 191 to 193 °C.

In turn, `CC(C)(C)CN(CC(O)C(Cc1ccccc1)NC(=O)C(CC(N)=O)NC(=O)NCc1ccccc1)C(=O)NC(C)(C)C` (centres undefined) came in with a melting point of 177 to 178 °C. With `Oc1ccc2c(c1)C=C(n1ccnc1)CC2` the figure was 218 to 220 °C.

Take `CN1CCN(c2c(F)c(N)c3c(=O)c(C(=O)O)cn(C4CC4)c3c2F)CCC1=O`: the melting point lay in the range of 281 to 283 °C. Regarding `O=C1C(O)N(c2ccc(Oc3ccccc3)cc2)C(=S)N1c1ccccc1` (centres undefined), the melting point was found to be 160 °C.

For `Clc1ccc2[nH]c(SCc3nc4ccccc4s3)nc2c1`, the melting point is 176 to 180 °C. `Cc1oc(-c2ccccc2)nc1COc1ccc(COC(=O)Cc2cccc(OCc3ccc(OCc4nc(-c5ccccc5)oc4C)cc3)c2)cc1`: the melting point lay within 90 to 91 °C. With `Cc1ccc2c(c1)c(Cl)c(C#N)c(=O)n2C` the figure was 241 °C; with `O=Cc1ccccc1NC1CCN(Cc2ccccc2)CC1`, 87 to 90 °C. With `CNC(=O)C(C)Oc1cc(-c2nn(C)c(C(F)(F)F)c2Cl)c(F)cc1Cl` (centres undefined) the figure was 134 to 136 °C. As to `O=CNCC(=O)c1cccc(Nc2ccc3ccccc3n2)c1`, the melting point was in the range of 194 to 196 °C. `COCOc1ccc(CCc2c(CC(N)=O)cc(OC)c(OC)c2OC)cc1OCc1ccccc1` yielded a melting point of 73 to 74 °C. With `CCCc1nc2c(N)nc3cc(OCCNC(=O)OC(C)(C)C)ccc3c2s1`, the melting point was 136 to 139 °C. Consider `CCCSC1=NSc2ccccc2N1Cc1ccc(-c2ccccc2C(=O)O)cc1`, for which the melting point was in the range of 75 to 85 °C. In turn, `COc1cc(OCc2ccncc2)ccc1/C=C/c1cc(/C=C/c2cc3ccccc3[nH]2)n[nH]1` came in with a melting point of 124 to 134 °C.

With `COc1ccc(C(=O)Nc2ccccc2)cc1NS(=O)(=O)c1cccc(C)c1`, the melting point was in the range of 195 to 197 °C. The compound `CC(O)(C#Cc1ccccc1)C(=O)O` (centres undefined) returned a melting point of 104 to 106 °C. With `CN1C(=O)C2(COc3cc4c(cc32)OCCO4)c2c(NC(=O)C3CCC3)cccc21` (centres undefined) the figure was 234 to 236 °C; with `CCCCC(=O)Nc1c(C(=O)c2cccc(C)c2)[nH]c2cc(Cl)ccc12`, 124 to 126 °C.

Compound `COc1ccc(CN2CC(NC(=O)c3ccc(OCC=C(C)CCC=C(C)C)cc3)CN2Cc2ccc(OC)cc2)cc1` came in with a melting point of 123 to 124 °C. The compound `Cc1cc(OCc2ccccc2)ccc1C(=O)O` yielded a melting point of 126 to 129 °C.

The compound `CCC(=O)c1ccc(C(O)C(C)(C)C)cc1` (centres undefined) came in with a melting point of 88 to 91 °C. Under `CC1(C)OC(c2ccc(S(N)(=O)=O)cc2)=C(c2ccc(F)cc2)C1=O` stands 162 to 163 °C. With `Cc1cccc(-c2nnc(Nc3ccc(Br)c(Cl)c3)s2)c1` the figure was 230 to 231 °C; with `COC(OC)C(=O)C=Cc1ccc(-c2cccs2)s1`, 74 °C; with `Nc1c(Br)cc(Nc2ncnc3cnc(N4CCC(N)CC4)nc23)cc1Br`, 204 to 206 °C. Under `Cc1cc(C)cc(C(=O)N2CCN(C(=O)CNC3CCN(CCCc4ccccc4)CC3)C(c3ccc(Cl)c(Cl)c3)C2)c1` (racemic) stands 52 to 54 °C; under `CP(C)(=O)C(O)C(=O)OCC(=O)c1ccccc1` (centres undefined), 147 °C. In turn, `CCOn1c(C(F)(F)F)nc2c([N+](=O)[O-])cc(C(F)(F)F)cc21` displayed a melting point of 94 to 96 °C. `COc1cc(OC)nc(Sc2sccc2[N+](=O)[O-])n1` gave a melting point of 199 to 201 °C. In turn, `CCCNC(=O)c1cncs1` gave a melting point of 86 °C. For the compound `COc1ccc2nc3cc(OC)c(=O)c(Cl)c-3sc2c1`, the melting point was determined as 264 °C. Turning to `Cc1ccc(NC(=O)c2cccc(C(F)(F)F)c2)cc1-c1ccc2ccncc2c1`, the melting point was 148 to 152 °C.

For the compound `CCCCC(=NNC(=O)OCC)c1ccncc1`, the melting point came out at 102 °C. Turning to `CCCCCCCCCCCC(=O)N(CCO)CCNCCO`, the melting point is 94 °C.

In turn, `Cc1ccc([N+](=O)[O-])c(C)c1CO` came in with a melting point of 94.5 to 96.1 °C.

The compound `O=C(O)CC1ON(C(=O)OCc2ccccc2)C(=O)C1N1C(=O)c2ccccc2C1=O` (centres undefined) showed a melting point of 160 to 162 °C. Under `CCOC(=O)C=C(NNc1c(C)cc(C)c([N+](=O)[O-])c1C)OC` stands 82 to 83 °C; under `CCCCCCNCc1ccc(COc2cccc3c2CN(C2CCC(=O)NC2=O)C3=O)cc1` (centres undefined), 155 to 157 °C. With `N#CCCNC(=O)C1=CC(CF)(CF)Oc2ccc(C(F)(F)C(F)(F)F)cc21` the figure was 144 to 145 °C.

Turning to `CCOC(=O)C(=O)Nc1ccc(C(=O)NC2CCN(C3CCCCC3)C2)cc1` (centres undefined), the melting point fell in the range of 138 to 141 °C. As for `CCOc1ccc(NC=C(C#N)C(=O)Nc2cc(OC)c(Cl)cc2Cl)cc1I`, the melting point is greater than 245 °C. With `CNC(=O)[C@H]1CN(c2ccc3c(c2)oc(=O)n3C)C(=O)O1` the figure was 304 to 306 °C; with `CC(Oc1ccc([N+](=O)[O-])cc1F)c1c(Cl)cccc1Cl` (centres undefined), 120 °C.

On to `COc1cc2ncnc(N3CCN(C(=O)NCc4ccc(F)cc4)CC3)c2cc1OC`, for which the melting point was 200 to 201 °C. Consider `CN(C)C(=S)SCC(c1cccc2ccccc12)[N+](=O)[O-]` (centres undefined), for which the melting point was 136 to 138 °C.

`O=S(=O)(OS(=O)(=O)C1CCCCC1)C1CCCCC1` registered a melting point of 97 to 100 °C. With `CNC(=O)N(C)c1nnc(C(C)(CCl)CCl)s1` the figure was 150 to 152 °C; with `CC(=O)c1ccc(OCc2ccccc2)c2ncccc12`, 131 to 133 °C; with `O=NN1CCc2cc(Cl)ccc21`, 120 to 122 °C.

`O=c1ccc(-c2ccc(-n3cnc4c3CCCC4)cc2)n[nH]1` gave a melting point of 266 to 267 °C.

As for `Cc1ccccc1-n1c(Cn2cnc3c(N)ncnc32)nc2cccc(C)c2c1=O`, the melting point fell in the range of 282 to 283 °C. With `COC(=O)NCc1nc2ccn(Cc3ccc(F)cc3)cc-2n1` the figure was 179 °C. Under `CCNC(=O)C(=O)NCC(OCC)OCC` stands 131 to 132 °C. In the case of `CC(C)CC(=O)C(=O)OCc1ccccc1`, the melting point is 98 to 100 °C. Turning to `CCc1cccc2c1OC(C(F)(F)F)C(C(=O)O)=C2` (centres undefined), the melting point was 185 to 187 °C. For the compound `CS(=O)(=O)c1ccc(-c2cc(N)sc2-c2ccc(F)cc2)cc1`, the melting point fell in the range of 207 to 209 °C. `CCOC(=O)CNCc1cccc(-c2c(CC(=O)Nc3ccc(F)cc3C(F)(F)F)c(=O)oc3cc(Cl)c(C)cc23)c1`: the melting point lay in the range of 153 to 155 °C.

`CNc1nc(-c2cccc(NC(=O)Nc3ccccc3)c2)c2cc(OC)c(OC)cc2n1`: the melting point lay in the range of 218 to 220 °C. With `CCCn1c(SC)nc2cc(Br)sc2c1=O` the figure was 138 to 141 °C; with `CCCn1cc2c(C3C(=O)Nc4ccc(Br)cc43)nc(NCCN(C)C)nc2n1` (centres undefined), 270 to 274 °C; with `O=C1NCCc2ccc(OCCCCN3CCN(c4cccc5ccc(F)cc45)CC3)nc2N1`, 234 °C. With `Clc1ccc(-c2cc[nH]c2)cc1` the figure was 117 to 118 °C; with `NS(=O)(=O)c1cccc(C(=O)Nc2ccc(-n3nc(C(F)(F)F)cc3C(F)(F)F)cc2)c1`, 177 to 178 °C; with `CC(C)(C)c1ccc(C(=O)CCCN2CCC(C3(O)c4ccccc4CCc4ccccc43)CC2)cc1`, 132 to 134 °C. For `N#Cc1cc(Cl)ccc1N1CCN(Cc2cn3cc(Cl)ccc3n2)CC1`, the melting point lay in the range of 191 to 192 °C. As for `COc1ccc(CSc2ccc(S(=O)(=O)N=CN(C)C)s2)cc1`, the melting point is 92 to 101 °C.

In the case of `COc1cc(C=CC#N)cc(OC)c1`, the melting point was 126 °C. With `COC(CCCNC(=O)C=CC(=O)NCCCC(OC)OC)OC` the figure was 170 to 172 °C; with `CCn1nnc2cc3c(cc2c1=O)OC1CCCN1C3=O` (centres undefined), 186 to 188 °C.

Compound `CC(=O)c1cc2c(s1)S(=O)(=O)CCc1cc(=O)n(-c3ccc(Cl)cc3)nc1-2` displayed a melting point of 272 to 273 °C. Consider `COc1ccc2c(c1OC)C=NCN2CCC(=O)O`, for which the melting point fell in the range of 226 to 228 °C. Compound `OC1(OCc2ccccc2)C(Cl)=C(Cl)C=CC1OCc1ccccc1` (centres undefined) yielded a melting point of 74 to 75 °C.

The compound `O=C1Nc2ccc(F)cc2C1c1ncnc2nn(C3CCCCC3)cc12` (centres undefined) displayed a melting point of 294 to 298 °C. Compound `CNC(C(N)=O)c1cn(C2CCc3c(F)cc(F)cc3C2)c(=S)[nH]1` (centres undefined) yielded a melting point of 212 to 213 °C. With `CCCNC(=O)c1cnc2ccccn2c1=O` the figure was 120 to 122 °C; with `CCCc1c2ccccc2c(O)c2c(=O)cc(C(=O)OCC)oc12`, 148 to 150 °C; with `O=C(O)c1cccc(-c2cccc(OCCc3cccc(F)c3)n2)c1`, 142 to 143 °C.

In the case of `CCO[PH](=O)OP(=O)(CNC(C)(c1ccccc1)c1cc(C(C)(C)C)c(O)c(C(C)(C)C)c1)OCC` (centres undefined), the melting point was in the range of 95 to 110 °C.

`CONC(=O)Nc1ccc(-c2sc3c(c2CN(C)CCc2ccccn2)c(=O)n(-c2ccccn2)c(=O)n3Cc2c(F)cccc2F)cc1` gave a melting point of 194 to 196 °C. Under `CON(Cc1ccc(F)cc1)C(=O)c1nc2n(c(=O)c1OCc1ccccc1)CCOC2(C)C` stands 141 °C.
